Experimental data: patent US8299048B2, “Hexahydrocyclopentyl[f]indazole sulfonamides and derivatives thereof as selective glucocorticoid receptor modulators” (Merck Sharp & Dohme Corp., priority 2008, dated 2012)
pKi: −log10 of the molar value.

biological target: T1, glucocorticoid receptor (Homo sapiens, UniProt P04150); assay: Ligand binding assay (GR BIND)
T1 construct: endogenous in cells
T1 sequence (P04150 1-777): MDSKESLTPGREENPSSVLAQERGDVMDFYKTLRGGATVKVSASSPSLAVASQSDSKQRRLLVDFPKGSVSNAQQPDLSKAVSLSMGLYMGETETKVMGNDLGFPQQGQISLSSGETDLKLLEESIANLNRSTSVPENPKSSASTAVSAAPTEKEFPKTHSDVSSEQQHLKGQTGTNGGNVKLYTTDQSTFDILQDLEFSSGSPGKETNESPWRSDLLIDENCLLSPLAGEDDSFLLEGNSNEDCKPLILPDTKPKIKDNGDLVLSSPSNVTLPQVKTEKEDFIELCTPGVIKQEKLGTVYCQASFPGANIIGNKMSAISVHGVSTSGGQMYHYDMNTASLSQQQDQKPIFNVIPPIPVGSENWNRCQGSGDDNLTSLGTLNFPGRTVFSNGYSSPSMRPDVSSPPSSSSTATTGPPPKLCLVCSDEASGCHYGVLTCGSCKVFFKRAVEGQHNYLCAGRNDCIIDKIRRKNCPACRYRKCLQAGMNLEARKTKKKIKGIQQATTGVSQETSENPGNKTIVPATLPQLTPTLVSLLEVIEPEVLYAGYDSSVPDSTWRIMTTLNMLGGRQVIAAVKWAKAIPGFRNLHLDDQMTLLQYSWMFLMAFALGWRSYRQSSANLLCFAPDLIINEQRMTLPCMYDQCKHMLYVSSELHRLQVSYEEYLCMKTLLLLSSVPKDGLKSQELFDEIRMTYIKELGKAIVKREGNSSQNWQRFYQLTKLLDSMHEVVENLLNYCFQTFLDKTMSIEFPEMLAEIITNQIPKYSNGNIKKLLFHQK
Procedure, shortened: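 Displacement of tritiated dexamethasone (6 nM trace solution) from receptor in cell supernatant was measured after overnight incubation at 4 °C in molybdate-containing TEGM, pH 7.2, 2% ethanol. Hydroxylapatite pulled down the receptor–ligand complex for filter washing and scintillation counting, with dexamethasone as reference.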

| pKi | Compound |
| --- | --- |
| 8.06 | C[C@]12Cc3cnn(-c4ccc(F)cc4)c3C=C1CC[C@@H]2CN(CCO)S(=O)(=O)c1ccc(Oc2cccc(Cl)c2C#N)cc1 [Example 69, 4-(3-chloro-2-cyanophenoxy)-N-{[(4αR,5S)-1-(4-fluorophenyl)-4α-methyl-1,4,4α,5,6,7-hexahydrocyclopenta[f]indazol-5-yl]methyl}-N-(2-hydroxyethyl)benzenesulfonamide] |
| 8.35 | C[C@]12Cc3cnn(-c4ccc(F)cc4)c3C=C1CC[C@@H]2CN(CCO)S(=O)(=O)c1ccccc1C(F)(F)F [Example 70, N-{[(4αR,5S)-1-(4-fluorophenyl)-4α-methyl-1,4,4α,5,6,7-hexahydrocyclopenta[f]indazol-5-yl]methyl}-N-(2-hydroxyethyl)-2-(trifluoromethyl)benzenesulfonamide] |
| 8.30 | Cc1noc(C)c1S(=O)(=O)N(CCO)C[C@H]1CCC2=Cc3c(cnn3-c3ccc(F)cc3)C[C@@]21C [Example 71, N-{[(4αR,5S)-1-(4-fluorophenyl)-4α-methyl-1,4,4α,5,6,7-hexahydrocyclopenta[f]indazol-5-yl]methyl}-N-(2-hydroxyethyl)-3,5-dimethylisoxazole-4-sulfonamide] |
| 8.85 | C[C@]12Cc3cnn(-c4ccc(F)cc4)c3C=C1CC[C@@H]2CN(CCO)S(=O)(=O)c1cc(F)cc(F)c1 [Example 72] |
| 8.51 | COC(=O)c1ccccc1S(=O)(=O)N(CCO)C[C@H]1CCC2=Cc3c(cnn3-c3ccc(F)cc3)C[C@@]21C [Example 73, methyl 2-{[{[(4αR,5S)-1-(4-fluorophenyl)-4α-methyl-1,4,4α,5,6,7-hexahydrocyclopenta[f]indazol-5-yl]methyl}(2-hydroxyethyl)amino]sulfonyl}benzoate] |
| 8.52 | C[C@]12Cc3cnn(-c4ccc(F)cc4)c3C=C1CC[C@@H]2CN(CCO)S(=O)(=O)c1ccc(Oc2ccccn2)cc1 [Example 74, N-{[(4αR,5S)-1-(4-fluorophenyl)-4α-methyl-1,4,4α,5,6,7-hexahydrocyclopenta[f]indazol-5-yl]methyl}-N-(2-hydroxyethyl)-4-(pyridin-2-yloxy)benzenesulfonamide] |
| 8.60 | C[C@]12Cc3cnn(-c4ccc(F)cc4)c3C=C1CC[C@@H]2CN(CCO)S(=O)(=O)Cc1ccccc1 [Example 75, N-{[(4αR,5S)-1-(4-fluorophenyl)-4α-methyl-1,4,4α,5,6,7-hexahydrocyclopenta[f]indazol-5-yl]methyl}-N-(2-hydroxyethyl)-1-phenylmethanesulfonamide] |
| 8.11 | CNC(=O)Nc1ccc(S(=O)(=O)N(CCO)C[C@H]2CCC3=Cc4c(cnn4-c4ccc(F)cc4)C[C@@]32C)c(Cl)c1 [Example 76, 2-chloro-N-{[(4αR,5S)-1-(4-fluorophenyl)-4α-methyl-1,4,4α,5,6,7-hexahydrocyclopenta[f]indazol-5-yl]methyl}-N-(2-hydroxyethyl)-4-{[(methylamino)carbonyl]amino}-benzenesulfonamide] |
| 8.74 | Cc1ccccc1S(=O)(=O)N(CCO)C[C@H]1CCC2=Cc3c(cnn3-c3ccc(F)cc3)C[C@@]21C [Example 77, N-{[(4αR,5S)-1-(4-fluorophenyl)-4α-methyl-1,4,4α,5,6,7-hexahydrocyclopenta[f]indazol-5-yl]methyl}-N-(2-hydroxyethyl)-2-methylbenzenesulfonamide] |
| 8.64 | C[C@]12Cc3cnn(-c4ccc(F)cc4)c3C=C1CC[C@@H]2CN(CCO)S(=O)(=O)c1ccccc1C#N [Example 78, 2-cyano-N-{[(4αR,5S)-1-(4-fluorophenyl)-4α-methyl-1,4,4α,5,6,7-hexahydrocyclopenta[f]indazol-5-yl]methyl}-N-(2-hydroxyethyl)benzenesulfonamide] |
| 8.32 | C[C@]12Cc3cnn(-c4ccc(F)cc4)c3C=C1CC[C@@H]2CN(CCO)S(=O)(=O)c1ccc(Oc2ccccc2)cc1 [Example 79, N-{[(4αR,5S)-1-(4-fluorophenyl)-4α-methyl-1,4,4α,5,6,7-hexahydrocyclopenta[f]indazol-5-yl]methyl}-N-(2-hydroxyethyl)-4-phenoxybenzenesulfonamide] |
| 7.86 | C[C@]12Cc3cnn(-c4ccc(F)cc4)c3C=C1CC[C@@H]2CN(CCO)S(=O)(=O)c1cc(C(F)(F)F)ccc1Cl [Example 80, 2-chloro-N-{[(4αR,5S)-1-(4-fluorophenyl)-4α-methyl-1,4,4α,5,6,7-hexahydrocyclopenta[f]indazol-5-yl]methyl}-N-(2-hydroxyethyl)-5-(trifluoromethyl)benzenesulfonamide] |
| 8.14 | C[C@]12Cc3cnn(-c4ccc(F)cc4)c3C=C1CC[C@@H]2CN(CCO)S(=O)(=O)c1ccccc1Cl [Example 81, 2-chloro-N-{[(4αR,5S)-1-(4-fluorophenyl)-4α-methyl-1,4,4α,5,6,7-hexahydrocyclopenta[f]indazol-5-yl]methyl}-N-(2-hydroxyethyl)benzenesulfonamide] |
| 8.49 | C[C@]12Cc3cnn(-c4ccc(F)cc4)c3C=C1CC[C@@H]2CN(CCO)S(=O)(=O)c1ccc(F)cc1F [Example 82, 2,4-difluoro-N-{[(4αR,5S)-1-(4-fluorophenyl)-4α-methyl-1,4,4α,5,6,7-hexahydrocyclopenta[f]indazol-5-yl]methyl}-N-(2-hydroxyethyl)benzenesulfonamide] |
| 8.43 | Cc1nn(C)c(Cl)c1S(=O)(=O)N(CCO)C[C@H]1CCC2=Cc3c(cnn3-c3ccc(F)cc3)C[C@@]21C [Example 83, 5-chloro-N-{[(4αR,5S)-1-(4-fluorophenyl)-4α-methyl-1,4,4α,5,6,7-hexahydrocyclopenta[f]indazol-5-yl]methyl}-N-(2-hydroxyethyl)-1,3-dimethyl-1H-pyrazole-4-sulfonamide] |
| 8.59 | C[C@]12Cc3cnn(-c4ccc(F)cc4)c3C=C1CC[C@@H]2CN(CCO)S(=O)(=O)c1ccccc1-c1ccccc1 [Example 84, N-{[(4αR,5S)-1-(4-fluorophenyl)-4α-methyl-1,4,4α,5,6,7-hexahydrocyclopenta[f]indazol-5-yl]methyl}-N-(2-hydroxyethyl)biphenyl-2-sulfonamide] |
| 8.16 | CC(=O)Nc1ccc(S(=O)(=O)N(CCO)C[C@H]2CCC3=Cc4c(cnn4-c4ccc(F)cc4)C[C@@]32C)cc1 [Example 85, N-(4-{[{[(4αR,5S)-1-(4-fluorophenyl)-4α-methyl-1,4,4α,5,6,7-hexahydrocyclopenta[f]indazol-5-yl]methyl}(2-hydroxyethyl)amino]sulfonyl}phenyl)acetamide] |
| 8.38 | C[C@]12Cc3cnn(-c4ccc(F)cc4)c3C=C1CC[C@@H]2CN(CCc1ccccc1F)S(=O)(=O)c1ccccc1F [Example 86, 2-fluoro-N-[2-(2-fluorophenyl)ethyl]-N-{[(4αR,5S)-1-(4-fluorophenyl)-4α-methyl-1,4,4α,5,6,7-hexahydrocyclopenta[f]indazol-5-yl]methyl}benzenesulfonamide] |
| 8.55 | CCCS(=O)(=O)N(CCc1ccccc1F)C[C@H]1CCC2=Cc3c(cnn3-c3ccc(F)cc3)C[C@@]21C [Example 87, N-[2-(2-fluorophenyl)ethyl]-N-{[(4αR,5S)-1-(4-fluorophenyl)-4α-methyl-1,4,4α,5,6,7-hexahydrocyclopenta[f]indazol-5-yl]methyl}propane-1-sulfonamide] |
